In patent US8865734B2 (priority 2010, dated 2014):
Values after ≈ are worked out from the molar mass of the structure shown.

What was measured:
[1] = system: in vitro grown Mycobacteria (M. tuberculosis); assay: QUM: Quantification of in vitro grown Mycobacteria (in vitro growth fluorescence assay); format: cell-based; conditions: Mycobacterium tuberculosis; MIC, 80% bacterial growth inhibition; in vitro growth; read-out: QUM
Excerpt: (§1) A 120,000 small molecule compound library was screened using a validated phenotypic cell-based assay (WO2010003533A2). Active compounds from the primary screen were confirmed via dose response in the intracellular (QIM) assay and an in vitro (QUM) assay, wherein the abbreviation “QIM” stands for Quantification of Intracellular Mycobacteria and the abbreviation “QUM” stands for Quantification of in vitro grown Mycobacteria. […] The MIC is the minimum concentration of compound required to obtain 80% bacterial growth inhibition.
(§2) The imidazopyridine compounds (scaffolds Ia and Ib; see Table 1) underwent derivatization according to the methods outlined below (Schemes 1-13). Resulting derivatives were examined for inhibitory activity (MIC) using the assays described above (Example 1) and the results are summarized in Table 1.

[2] = system: M. tuberculosis inside the host macrophage; assay: QIM: Quantification of Intracellular Mycobacteria (intracellular growth assay, phenotypic cell-based); conditions: Mycobacterium tuberculosis; MIC, 80% bacterial growth inhibition; intracellular growth; read-out: QIM
Excerpt: Accordingly, a phenotypic cell-based assay, suitable for high throughput screening, which allows for the search of compounds that would prevent M. tuberculosis multiplication inside the host macrophage was utilized (WO2010003533A2), overcoming many of the numerous and burdensome steps involved in previous methodologies (Arain et al., 1996).
as §1, §2

Row | SMILES | MIC [1] [µM] | MIC [2] [µM]
1 | CCc1nc2cc(Cl)ccn2c1C(=O)NCc1ccc(C(C)(C)C)cc1 [Compound 92, N-(4-tert-Butylbenzyl)-7-chloro-2-ethylimidazo[1,2-a]pyridine-3-carboxamide] | < 1 | < 1
2 | CCc1nc2cc(Cl)ccn2c1C(=O)NCc1ccc(N2CCC(C)CC2)cc1 [Compound 215, 7-Chloro-2-ethyl-N-(4-(4-methylpiperidin-1-yl)benzyl)imidazo[1,2-a]pyridine-3-carboxamide] | < 1 | < 1
3 | CCc1nc2ccc(Cl)cn2c1C(=O)NCc1ccc(N2CCCCCC2)cc1 [Compound 221, N-(4-(Azepan-1-yl)benzyl)-6-chloro-2-ethylimidazo[1,2-a]pyridine-3-carboxamide] | < 1 | < 1
4 | CCCC(=O)NCc1ccc(-c2ccc(CNC(=O)c3c(CC)nc4cc(Cl)ccn34)cc2)cc1 [Compound 159, N-((4′-(Butyramidomethyl)biphenyl-4-yl)methyl)-7-chloro-2-ethylimidazo[1,2-a]pyridine-3-carboxamide] | < 1 | < 1
5 | CCc1nc2ccc(C(F)(F)F)cn2c1C(=O)NCc1ccc(OC(F)(F)F)cc1 [Compound 151, 2-Ethyl-N-(4-(trifluoromethoxy)benzyl)-6-(trifluoromethyl)imidazo[1,2-a]pyridine-3-carboxamide] | 1 to 20 (≈ 0.431 to 8.63 µg/mL) | > 20
6 | CCc1nc2cc(Cl)ccn2c1C(=O)NCc1ccc(Oc2ccc(F)cc2)cc1 [Compound 188, 7-Chloro-2-ethyl-N-(4-(4-fluorophenoxy)benzyl)imidazo[1,2-a]pyridine-3-carboxamide] | < 1 | < 1
7 | CCc1nc2cc(N3CCN(c4ccc(F)cc4)CC3)ccn2c1C(=O)NCc1ccc(N2CCOCC2)cc1 [Compound 329, 2-Ethyl-7-(4-(4-fluorophenyl)piperazin-1-yl)-N-(4-morpholinobenzyl)imidazo[1,2-a]pyridine-3-carboxamide] | > 20 | > 20
8 | Cc1nc2ccccn2c1C(=O)NCC1CCCCC1 [Compound 18, N-(Cyclohexylmethyl)-2-methylimidazo[1,2-a]pyridine-3-carboxamide] | > 20 | > 20
9 | COC(=O)[C@H](Cc1ccccc1)NC(=O)c1c(C)nc2ccccn12 [Compound 25, (S)-Methyl 2-(2-methylimidazo[1,2-a]pyridine-3-carboxamido)-3-phenylpropanoate] | > 20 | > 20
10 | CCc1nc2ccc(Cl)cn2c1C(=O)NCc1ccc(-c2ccccc2C(F)(F)F)cc1 [Compound 123, 6-Chloro-2-ethyl-N-((2′-(trifluoromethyl)biphenyl-4-yl)methyl)imidazo[1,2-a]pyridine-3-carboxamide] | 1 to 20 (≈ 0.458 to 9.16 µg/mL) | < 1
11 | CCc1nc2ccc(F)cn2c1C(=O)NCc1ccc(OC(F)(F)F)cc1 [Compound 103, 2-Ethyl-6-fluoro-N-(4-(trifluoromethoxy)benzyl)imidazo[1,2-a]pyridine-3-carboxamide] | 1 to 20 (≈ 0.381 to 7.63 µg/mL) | < 1
12 | CCc1nc2cc(Cl)ccn2c1C(=O)NCc1ccc(N2CCN(c3ccccc3)CC2)cc1 [Compound 111, 7-Chloro-2-ethyl-N-(4-(4-phenylpiperazin-1-yl)benzyl)imidazo[1,2-a]pyridine-3-carboxamide] | < 1 | < 1
13 | CCc1nc2cc(Cl)c(Cl)cn2c1C(=O)NCc1ccc(N2CCN(Cc3ccc(F)cc3)CC2)cc1 [Compound 175, 6,7-Dichloro-2-ethyl-N-(4-(4-(4-fluorobenzyl)piperazin-1-yl)benzyl)imidazo[1,2-a]pyridine-3-carboxamide] | > 20 | < 1
14 | CCc1nc2ccc(Cl)cn2c1CNc1ccc(OC(F)(F)F)cc1 [Compound 240, N-((6-Chloro-2-ethylimidazo[1,2-a]pyridin-3-yl)methyl)-4-(trifluoromethoxy)aniline] | > 20 | > 20
15 | CCc1nc2ccccn2c1C(=O)NCc1ccccc1 [Compound 46, N-Benzyl-2-ethylimidazo[1,2-a]pyridine-3-carboxamide] | 1 to 20 (≈ 0.279 to 5.59 µg/mL) | 1 to 20 (≈ 0.279 to 5.59 µg/mL)
16 | CCc1nc2cc(N3CCNCC3)ccn2c1C(=O)NCc1ccc(C(C)(C)C)cc1 [Compound 145, N-(4-tert-Butylbenzyl)-2-ethyl-7-(piperazin-1-yl)imidazo[1,2-a]pyridine-3-carboxamide] | > 20 | > 20
17 | CCc1nc2ccc(Br)cn2c1C(=O)NCc1ccc(OC(F)(F)F)cc1 [Compound 152, 6-Bromo-2-ethyl-N-(4-(trifluoromethoxy)benzyl)imidazo[1,2-a]pyridine-3-carboxamide] | < 1 | < 1
18 | Cc1nc2c(F)cccn2c1C(=O)NCc1ccccc1 [Compound 39, N-Benzyl-8-fluoro-2-methylimidazo[1,2-a]pyridine-3-carboxamide] | 1 to 20 (≈ 0.283 to 5.67 µg/mL) | 1 to 20 (≈ 0.283 to 5.67 µg/mL)

Row | SMILES | MIC [1] [µM] | MIC [2] [µM]
19 | CCc1nc2ccc(Cl)cn2c1C(=O)NCc1ccc(C(C)(C)C)cc1 [Compound 73] | < 1 | < 1
20 | CCc1nc2cc(Cl)ccn2c1C(=O)NCc1ccc(-n2cccc2)cc1 [Compound 138, N-(4-(1H-Pyrrol-1-yl)benzyl)-7-chloro-2-ethylimidazo[1,2-a]pyridine-3-carboxamide] | < 1 | < 1
21 | Cc1nc2c(Cl)cccn2c1C(=O)NCc1ccccc1 [Compound 27, N-Benzyl-8-chloro-2-methylimidazo[1,2-a]pyridine-3-carboxamide] | > 20 | > 20
22 | CCc1nc2ccc(F)cn2c1C(=O)NCc1ccc(N2CCOCC2)cc1 [Compound 316, 2-Ethyl-6-fluoro-N-(4-morpholinobenzyl)imidazo[1,2-a]pyridine-3-carboxamide] | 1 to 20 (≈ 0.382 to 7.65 µg/mL) | 1 to 20 (≈ 0.382 to 7.65 µg/mL)
23 | CCc1nc2cc(Cl)ccn2c1C(=O)NCc1ccc(-c2ccc(C#N)cc2)cc1 [Compound 122, 7-Chloro-N-((4′-cyanobiphenyl-4-yl)methyl)-2-ethylimidazo[1,2-a]pyridine-3-carboxamide] | < 1 | < 1
24 | CCCC(=O)NCc1ccc(N2CCN(c3ccc(CNC(=O)c4c(CC)nc5cc(Cl)ccn45)cc3)CC2)cc1 [Compound 144, N-(4-(4-(4-(Butyramidomethyl)phenyl)piperazin-1-yl)benzyl)-7-chloro-2-ethylimidazo-[1,2-a]pyridine-3-carboxamide] | < 1 | < 1
25 | CCc1nc2cc(Cl)ccn2c1NC(=O)Cc1ccc(-c2ccccc2)cc1 [Compound 143, 2-(Biphenyl-4-yl)-N-(7-chloro-2-ethylimidazo[1,2-a]pyridin-3-yl)acetamide] | 1 to 20 (≈ 0.39 to 7.8 µg/mL) | < 1
26 | CCc1nc2ccc(Cl)cn2c1C(=O)NCc1ccc(-c2ccc(C#N)cc2)cc1 [Compound 121, 6-Chloro-N-((4′-cyanobiphenyl-4-yl)methyl)-2-ethylimidazo[1,2-a]pyridine-3-carboxamide] | < 1 | < 1
27 | CCc1nc2ccc(Cl)cn2c1C(=O)NCc1ccc(N2CCN(c3ccc(F)cc3)CC2)cc1 [Compound 113, 6-Chloro-2-ethyl-N-(4-(4-(4-fluorophenyl)piperazin-1-yl)benzyl)imidazo[1,2-a]pyridine-3-carboxamide] | < 1 | < 1
28 | CCc1nc2ccc(Cl)cn2c1C(=O)NCc1ccc(Oc2ccccc2)cc1 [Compound 71] | < 1 | < 1
29 | CCc1nc2ccc(Cl)cn2c1C(=O)N(C)Cc1ccc(Oc2ccc(F)cc2)cc1 [Compound 197, 6-Chloro-2-ethyl-N-(4-(4-fluorophenoxy)benzyl)-N-methylimidazo[1,2-a]pyridine-3-carboxamide] | 1 to 20 (≈ 0.438 to 8.76 µg/mL) | 1 to 20 (≈ 0.438 to 8.76 µg/mL)
30 | O=C(NCc1ccccc1)c1c(-c2ccccc2)nc2ccccn12 [Compound 53, N-Benzyl-2-phenylimidazo[1,2-a]pyridine-3-carboxamide] | > 20 | > 20
31 | CCc1nc2ccccn2c1C(=O)NCc1ccc(N2CCC(c3ccc(F)cc3)CC2)cc1 [Compound 285, 2-Ethyl-N-(4-(4-(4-fluorophenyl)piperidin-1-yl)benzyl)imidazo[1,2-a]pyridine-3-carboxamide] | < 1 | 
32 | CCc1nc2c(OC)cccn2c1C(=O)NCc1ccc(N2CCN(c3ccc(F)cc3)CC2)cc1 [Compound 115, 2-Ethyl-N-(4-(4-(4-fluorophenyl)piperazin-1-yl)benzyl)-8-methoxyimidazo[1,2-a]pyridine-3-carboxamide] | < 1 | 
33 | CCc1nc2ccc(Cl)cn2c1C(=O)NCc1ccc(N2CCC(c3ccc(OC(F)(F)F)cc3)CC2)cc1 [Compound 289, 6-Chloro-2-ethyl-N-(4-(4-(4-(trifluoromethoxy)phenyl)piperidin-1-yl)benzyl)imidazo[1,2-a]pyridine-3-carboxamide] | < 1 | 
34 | CCc1nc2cc(OC)ccn2c1C(=O)NCc1ccc(N2CCN(c3ccc(F)cc3)CC2)cc1 [Compound 114, 2-Ethyl-N-(4-(4-(4-fluorophenyl)piperazin-1-yl)benzyl)-7-methoxyimidazo[1,2-a]pyridine-3-carboxamide] | < 1 | 
35 | CCc1nc2cc(Cl)ccn2c1C(=O)NCc1ccc(N2CC3CCCCC3C2)cc1 (centres unmarked) [Compound 224, N-(4-(1H-isoindol-2(3H,3aH,4H,5H,6H,7H,7aH)-yl)benzyl)-7-chloro-2-ethylimidazo[1,2-a]pyridine-3-carboxamide] | < 1 | 
